Data taken from the Kinase Knowledgebase extract (Sharma et al. 2016).

Key:
Experiment in all cases: Enzyme Assay
PIK3CD (Human) = PIK3CD (Human) (UniProt O00329)
PIK3CB (Human) = PIK3CB (Human) (UniProt P42338)
PIK3CA (human) = PIK3CA (human) (UniProt P42336)
PIK3CG (human) = PIK3CG (human) (UniProt P48736)
Chain of PIK3CG (human) (P48736 whole entry, looked up): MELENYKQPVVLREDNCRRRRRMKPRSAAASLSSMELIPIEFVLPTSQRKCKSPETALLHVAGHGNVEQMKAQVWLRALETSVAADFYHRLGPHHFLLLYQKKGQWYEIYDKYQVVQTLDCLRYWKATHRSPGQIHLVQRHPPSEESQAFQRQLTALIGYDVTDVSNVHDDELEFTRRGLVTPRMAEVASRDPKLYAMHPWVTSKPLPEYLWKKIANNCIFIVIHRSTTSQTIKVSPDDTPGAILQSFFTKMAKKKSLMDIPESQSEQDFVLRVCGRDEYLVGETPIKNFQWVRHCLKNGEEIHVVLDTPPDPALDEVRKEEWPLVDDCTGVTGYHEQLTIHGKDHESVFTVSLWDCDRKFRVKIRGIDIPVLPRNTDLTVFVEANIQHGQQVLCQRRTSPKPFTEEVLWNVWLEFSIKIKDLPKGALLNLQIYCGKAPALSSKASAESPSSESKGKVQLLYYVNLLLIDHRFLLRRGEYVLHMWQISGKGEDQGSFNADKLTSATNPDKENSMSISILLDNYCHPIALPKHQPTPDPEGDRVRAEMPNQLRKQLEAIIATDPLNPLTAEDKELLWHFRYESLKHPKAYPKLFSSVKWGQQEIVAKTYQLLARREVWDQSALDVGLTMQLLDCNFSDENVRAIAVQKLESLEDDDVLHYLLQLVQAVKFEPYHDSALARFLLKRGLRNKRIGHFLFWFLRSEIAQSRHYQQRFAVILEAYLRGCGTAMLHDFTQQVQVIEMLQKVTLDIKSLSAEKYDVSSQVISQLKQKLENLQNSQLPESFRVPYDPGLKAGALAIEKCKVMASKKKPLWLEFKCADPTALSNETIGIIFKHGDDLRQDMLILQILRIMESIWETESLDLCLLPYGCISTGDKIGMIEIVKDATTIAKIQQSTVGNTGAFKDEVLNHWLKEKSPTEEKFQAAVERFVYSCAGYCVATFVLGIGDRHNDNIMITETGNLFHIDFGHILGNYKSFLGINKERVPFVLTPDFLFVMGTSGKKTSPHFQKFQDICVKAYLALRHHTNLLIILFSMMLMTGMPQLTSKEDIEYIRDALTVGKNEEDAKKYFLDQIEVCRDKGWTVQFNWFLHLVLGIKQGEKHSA

Chain of PIK3CD (Human) (O00329 whole entry, looked up): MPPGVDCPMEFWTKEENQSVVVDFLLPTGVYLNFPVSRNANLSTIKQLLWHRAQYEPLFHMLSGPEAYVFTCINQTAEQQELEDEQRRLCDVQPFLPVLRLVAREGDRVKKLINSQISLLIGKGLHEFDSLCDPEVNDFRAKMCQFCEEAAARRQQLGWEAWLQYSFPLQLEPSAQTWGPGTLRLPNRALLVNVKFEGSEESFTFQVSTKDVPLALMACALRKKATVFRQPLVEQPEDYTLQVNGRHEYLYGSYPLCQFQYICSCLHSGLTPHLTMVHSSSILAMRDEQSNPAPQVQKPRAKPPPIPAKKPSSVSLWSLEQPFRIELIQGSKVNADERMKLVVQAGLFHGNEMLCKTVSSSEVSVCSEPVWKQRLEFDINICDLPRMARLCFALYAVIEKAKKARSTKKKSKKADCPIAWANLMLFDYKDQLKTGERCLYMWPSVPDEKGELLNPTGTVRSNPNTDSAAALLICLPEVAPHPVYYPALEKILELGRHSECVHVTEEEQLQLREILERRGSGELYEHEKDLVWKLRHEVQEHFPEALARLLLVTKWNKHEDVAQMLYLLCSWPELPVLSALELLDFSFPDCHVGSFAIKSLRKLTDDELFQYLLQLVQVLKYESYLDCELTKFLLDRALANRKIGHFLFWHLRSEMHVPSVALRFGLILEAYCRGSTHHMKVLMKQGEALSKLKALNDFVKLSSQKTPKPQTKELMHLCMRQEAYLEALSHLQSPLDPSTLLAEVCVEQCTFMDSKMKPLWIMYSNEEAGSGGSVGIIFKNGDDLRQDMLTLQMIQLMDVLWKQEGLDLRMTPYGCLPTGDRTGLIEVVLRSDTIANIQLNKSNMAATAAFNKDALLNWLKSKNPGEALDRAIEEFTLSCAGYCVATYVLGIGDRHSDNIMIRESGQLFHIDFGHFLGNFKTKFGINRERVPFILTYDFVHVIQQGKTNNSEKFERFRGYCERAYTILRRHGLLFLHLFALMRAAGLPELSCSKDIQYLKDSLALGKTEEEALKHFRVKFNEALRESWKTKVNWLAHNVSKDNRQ
Chain of PIK3CB (Human) (P42338 whole entry, looked up): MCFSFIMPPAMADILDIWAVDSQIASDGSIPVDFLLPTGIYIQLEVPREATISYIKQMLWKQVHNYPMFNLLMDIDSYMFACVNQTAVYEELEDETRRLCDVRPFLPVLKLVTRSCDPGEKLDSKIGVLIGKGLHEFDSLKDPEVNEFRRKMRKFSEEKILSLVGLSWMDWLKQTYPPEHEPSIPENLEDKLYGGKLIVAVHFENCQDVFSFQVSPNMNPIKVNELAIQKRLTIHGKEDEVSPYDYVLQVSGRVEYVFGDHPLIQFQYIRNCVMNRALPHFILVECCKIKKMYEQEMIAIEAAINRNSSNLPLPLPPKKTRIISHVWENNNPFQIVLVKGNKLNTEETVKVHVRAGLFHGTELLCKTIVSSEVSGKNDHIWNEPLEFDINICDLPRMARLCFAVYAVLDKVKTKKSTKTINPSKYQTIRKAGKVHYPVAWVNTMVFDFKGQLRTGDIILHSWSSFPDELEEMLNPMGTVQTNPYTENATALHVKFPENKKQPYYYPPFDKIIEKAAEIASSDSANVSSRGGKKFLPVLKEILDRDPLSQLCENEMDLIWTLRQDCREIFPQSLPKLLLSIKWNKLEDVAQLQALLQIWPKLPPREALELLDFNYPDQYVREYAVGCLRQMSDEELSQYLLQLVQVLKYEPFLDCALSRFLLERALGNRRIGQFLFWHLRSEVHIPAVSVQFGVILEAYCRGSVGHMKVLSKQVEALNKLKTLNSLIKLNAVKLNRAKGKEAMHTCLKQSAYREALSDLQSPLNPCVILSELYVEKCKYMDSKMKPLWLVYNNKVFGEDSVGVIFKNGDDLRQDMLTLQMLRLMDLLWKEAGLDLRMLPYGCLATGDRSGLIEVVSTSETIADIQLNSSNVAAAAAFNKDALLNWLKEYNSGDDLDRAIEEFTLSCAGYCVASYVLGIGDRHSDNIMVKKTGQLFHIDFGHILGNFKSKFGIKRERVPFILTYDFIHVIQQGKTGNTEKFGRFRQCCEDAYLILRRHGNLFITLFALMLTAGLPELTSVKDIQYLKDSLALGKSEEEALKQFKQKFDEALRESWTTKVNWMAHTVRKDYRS
Chain of PIK3CA (human) (P42336 whole entry, looked up): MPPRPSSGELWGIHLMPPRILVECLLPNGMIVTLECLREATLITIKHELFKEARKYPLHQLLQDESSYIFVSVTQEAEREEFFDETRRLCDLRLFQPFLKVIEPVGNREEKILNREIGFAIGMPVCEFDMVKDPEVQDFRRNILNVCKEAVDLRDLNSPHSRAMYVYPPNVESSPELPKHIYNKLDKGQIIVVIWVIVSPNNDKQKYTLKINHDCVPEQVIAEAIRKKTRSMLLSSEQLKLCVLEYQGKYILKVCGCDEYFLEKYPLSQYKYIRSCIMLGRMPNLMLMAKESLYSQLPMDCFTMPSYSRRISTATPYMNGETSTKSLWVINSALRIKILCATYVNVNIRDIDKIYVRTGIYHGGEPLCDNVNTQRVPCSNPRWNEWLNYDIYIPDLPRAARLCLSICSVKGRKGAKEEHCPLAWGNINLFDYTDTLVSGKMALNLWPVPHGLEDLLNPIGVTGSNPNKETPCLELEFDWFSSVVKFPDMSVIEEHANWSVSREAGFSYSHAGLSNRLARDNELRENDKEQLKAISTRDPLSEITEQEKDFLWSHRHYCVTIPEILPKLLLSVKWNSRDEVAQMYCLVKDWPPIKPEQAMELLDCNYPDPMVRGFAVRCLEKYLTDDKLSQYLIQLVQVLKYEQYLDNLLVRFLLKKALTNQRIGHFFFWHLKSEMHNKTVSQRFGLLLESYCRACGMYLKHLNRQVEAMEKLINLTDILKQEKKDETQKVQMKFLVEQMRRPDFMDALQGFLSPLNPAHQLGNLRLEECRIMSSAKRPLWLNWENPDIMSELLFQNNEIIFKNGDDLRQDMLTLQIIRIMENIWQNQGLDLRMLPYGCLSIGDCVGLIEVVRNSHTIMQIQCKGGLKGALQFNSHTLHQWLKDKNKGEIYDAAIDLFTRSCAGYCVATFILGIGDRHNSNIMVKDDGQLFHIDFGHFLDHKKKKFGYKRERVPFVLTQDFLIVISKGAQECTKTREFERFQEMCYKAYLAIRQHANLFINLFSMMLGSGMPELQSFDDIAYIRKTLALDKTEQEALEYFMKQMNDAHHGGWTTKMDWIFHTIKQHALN

Ki (PIK3CD (Human)) | Ki (PIK3CB (Human)) | Ki (PIK3CA (human)) | Ki (PIK3CG (human)) | Compound
9 nM | 19 nM | 1 nM | 5 nM | CC1(C)COC1c1cc2nc(-c3cnc(N)nc3)nc(N3CCOCC3)c2s1 (centres undefined)
7 nM | 27 nM | – | 7 nM | COC1(c2sc3c(N4CCOCC4)nc(-c4cnc(N)nc4)nc3c2C)COC1
2 nM | 21 nM | – | 4 nM | COC(C)(C)c1cc2nc(-c3cnc(N)nc3)nc(N3CCOCC3)c2s1
3 nM | 14 nM | 1 nM | 3 nM | CC1(C)OCCc2c1sc1c(N3CCOCC3)nc(-c3cnc(N)nc3)nc21
